Target: ATP-dependent translocase ABCB1 (Homo sapiens, UniProt P08183)
Experiment: TP_TRANSPORTER: increase in Vinblastine intracellular accumulation (Vinblastine: 1 uM, Estramustine: 50 uM) in SKVLB 1 cells
Format: functional, cell-based
Details: skvlb 1, 50 µM

ATP-dependent translocase ABCB1, sequence (P08183 whole entry): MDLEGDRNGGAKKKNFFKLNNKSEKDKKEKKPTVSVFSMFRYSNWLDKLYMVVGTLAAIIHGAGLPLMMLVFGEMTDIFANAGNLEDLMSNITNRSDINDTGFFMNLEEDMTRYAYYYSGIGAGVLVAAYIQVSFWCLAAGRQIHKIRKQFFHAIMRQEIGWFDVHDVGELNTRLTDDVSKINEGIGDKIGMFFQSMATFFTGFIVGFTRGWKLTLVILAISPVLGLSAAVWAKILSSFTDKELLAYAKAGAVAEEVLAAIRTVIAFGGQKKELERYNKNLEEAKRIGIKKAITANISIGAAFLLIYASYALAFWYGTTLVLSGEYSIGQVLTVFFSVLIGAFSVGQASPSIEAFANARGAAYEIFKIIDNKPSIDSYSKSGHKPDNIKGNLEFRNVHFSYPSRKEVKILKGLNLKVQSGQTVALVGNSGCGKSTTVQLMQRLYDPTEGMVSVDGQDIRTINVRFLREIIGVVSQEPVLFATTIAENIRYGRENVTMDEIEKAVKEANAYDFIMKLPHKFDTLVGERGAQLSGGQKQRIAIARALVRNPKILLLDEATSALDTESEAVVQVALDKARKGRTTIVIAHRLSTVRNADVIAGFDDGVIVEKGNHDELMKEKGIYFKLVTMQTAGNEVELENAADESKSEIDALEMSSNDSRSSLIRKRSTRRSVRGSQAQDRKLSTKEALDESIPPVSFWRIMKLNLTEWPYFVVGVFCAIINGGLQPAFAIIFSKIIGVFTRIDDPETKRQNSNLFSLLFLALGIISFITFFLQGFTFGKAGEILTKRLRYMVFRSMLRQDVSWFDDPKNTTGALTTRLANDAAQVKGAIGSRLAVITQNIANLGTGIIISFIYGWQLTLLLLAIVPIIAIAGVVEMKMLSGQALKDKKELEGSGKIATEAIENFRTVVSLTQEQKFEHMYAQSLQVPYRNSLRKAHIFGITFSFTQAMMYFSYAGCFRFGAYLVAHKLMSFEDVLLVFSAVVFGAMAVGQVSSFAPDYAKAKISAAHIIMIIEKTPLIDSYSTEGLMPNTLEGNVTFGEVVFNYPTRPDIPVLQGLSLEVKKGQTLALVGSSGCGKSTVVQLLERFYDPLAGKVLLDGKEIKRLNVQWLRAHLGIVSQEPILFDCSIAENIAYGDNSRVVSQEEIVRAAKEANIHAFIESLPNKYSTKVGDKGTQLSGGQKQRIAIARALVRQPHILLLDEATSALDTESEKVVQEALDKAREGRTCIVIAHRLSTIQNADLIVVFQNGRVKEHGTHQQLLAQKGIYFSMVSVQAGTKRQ

In the case of `C[C@]12CC[C@@H]3c4ccc(OC(=O)N(CCCl)CCCl)cc4CC[C@H]3[C@@H]1CC[C@@H]2O` [ESTRAMUSTINE], the Activity is reported as “inhibitor [+]”.
